Experimental data: PubChem BioAssay (NCI)
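48-hour exposure; five concentrations; linearly interpolated endpoints. GI50 is the concentration that inhibits growth by half. TGI marks complete inhibition of growth.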

Columns and labels:
Test in all cases: inhibition of tumour cell growth, NCI panel, 48 h
[1] = test system: SF-268 CNS
[2] = test system: IGROV1 ovarian
[3] = test system: CCRF-CEM leukemia
[4] = test system: SW-620 colon
[5] = test system: SF-295 CNS
[6] = test system: T-47D breast
[7] = test system: M14 melanoma
[8] = test system: HT29 colon
[9] = test system: SNB-75 CNS
[10] = test system: COLO 205 colon
[11] = test system: MOLT-4 leukemia
[12] = test system: RPMI-8226 leukemia
[13] = test system: SF-539 CNS
[14] = test system: HCT-15 colon
[15] = test system: A549 NSCLC
[16] = test system: DU-145 prostate
[17] = test system: HOP-92 NSCLC
[18] = test system: A498 renal
[19] = test system: SK-MEL-5 melanoma
[20] = test system: OVCAR-4 ovarian
[21] = test system: MDA-MB-231 breast
[22] = test system: NCI/ADR-RES ovarian
[23] = test system: UACC-62 melanoma
[24] = test system: 786-0 renal
[25] = test system: MDA-MB-435
[26] = test system: MCF7 breast
[27] = test system: OVCAR-3 ovarian
[28] = test system: UO-31 renal
[29] = test system: PC-3 prostate
[30] = test system: TK-10 renal
[31] = test system: SK-MEL-2 melanoma
[32] = test system: KM12 colon
[33] = test system: HCC-2998 colon
[34] = test system: NCI-H460 lung
[35] = test system: NCI-H226 lung
[36] = test system: MALME-3M melanoma
[37] = test system: SNB-19 CNS
[38] = test system: CAKI-1 renal
[39] = test system: NCI-H522 lung
[40] = test system: K-562 leukemia
[41] = test system: EKVX NSCLC
[42] = test system: NCI-H23 lung
[43] = test system: HOP-62 NSCLC
[44] = test system: SN12C renal
[45] = test system: UACC-257 melanoma
[46] = test system: SK-OV-3 ovarian
[47] = test system: U251 CNS
[48] = test system: OVCAR-5 ovarian
[49] = test system: SK-MEL-28 melanoma
[50] = test system: OVCAR-8 ovarian
[51] = test system: HS 578T breast
[52] = test system: SR leukemia
[53] = test system: ACHN renal
[54] = test system: HL-60(TB) leukemia
[55] = test system: HCT-116 colon
[56] = test system: BT-549 breast

C#C[C@]1(O)CC[C@H]2[C@@H]3CC=C4c5sc(Nc6ccccc6)nc5CC[C@]4(C)[C@H]3CC[C@@]21C
GI50 [1]: 2.19 µM | TGI [1]: 10.1 µM | GI50 [2]: 2.06 µM | TGI [2]: 5.5 µM | GI50 [3]: 1.1 µM | TGI [3]: 11.3 µM | GI50 [4]: 2.06 µM | TGI [4]: 5.85 µM | GI50 [5]: 0.244 µM | TGI [5]: 0.649 µM | GI50 [6]: 2.05 µM | TGI [6]: 6.94 µM | GI50 [7]: 1.6 µM | TGI [7]: 4.51 µM | GI50 [8]: 1.81 µM | TGI [8]: 6.68 µM | GI50 [9]: 0.858 µM | TGI [9]: 7.41 µM | GI50 [10]: 2.18 µM | TGI [10]: 5.39 µM | GI50 [11]: 0.577 µM | TGI [11]: 12.4 µM | GI50 [12]: 0.309 µM | TGI [12]: 1.6 µM | GI50 [13]: 0.37 µM | TGI [13]: 1.52 µM | GI50 [14]: 1.69 µM | TGI [14]: 6.47 µM | GI50 [15]: 3.48 µM | TGI [15]: 24.9 µM | GI50 [16]: 1.87 µM | TGI [16]: 4.71 µM | GI50 [17]: 3.81 µM | TGI [17]: 29.7 µM | GI50 [18]: 1.34 µM | TGI [18]: 3.66 µM | GI50 [19]: 1.72 µM | TGI [19]: 3.26 µM | GI50 [20]: 3.14 µM | TGI [20]: 65.6 µM | GI50 [21]: 2.01 µM | TGI [21]: 6.8 µM | GI50 [22]: 2.15 µM | TGI [22]: > 100 µM | GI50 [23]: 2.13 µM | TGI [23]: 6.44 µM | GI50 [24]: 0.655 µM | TGI [24]: 2.12 µM | GI50 [25]: 3 µM | TGI [25]: 11.2 µM | GI50 [26]: 1.57 µM | TGI [26]: 4.28 µM | GI50 [27]: 1.89 µM | TGI [27]: 5.34 µM | GI50 [28]: 1.43 µM | TGI [28]: 2.91 µM | GI50 [29]: 1.22 µM | TGI [29]: 43.5 µM | GI50 [30]: 3.79 µM | TGI [30]: 13.2 µM | GI50 [31]: 1.61 µM | TGI [31]: 5.75 µM | GI50 [32]: 2.66 µM | TGI [32]: 12.7 µM | GI50 [33]: 1.91 µM | TGI [33]: 4.22 µM | GI50 [34]: 2.4 µM | TGI [34]: 6.4 µM | GI50 [35]: 2.55 µM | TGI [35]: 7.59 µM | GI50 [36]: 1.31 µM | TGI [36]: 3.79 µM | GI50 [37]: 1.99 µM | TGI [37]: 7.16 µM | GI50 [38]: 1.64 µM | TGI [38]: 4.41 µM | GI50 [39]: 2.27 µM | TGI [39]: 6.26 µM | GI50 [40]: 1.86 µM | TGI [40]: > 100 µM | GI50 [41]: 2.83 µM | TGI [41]: 13.8 µM | GI50 [42]: 2.37 µM | TGI [42]: 13.1 µM | GI50 [43]: 2.19 µM | TGI [43]: 10.7 µM | GI50 [44]: 2.86 µM | TGI [44]: 11.1 µM | GI50 [45]: 2.46 µM | TGI [45]: 8.6 µM | GI50 [46]: 2.37 µM | TGI [46]: 10.6 µM | GI50 [47]: 0.886 µM | TGI [47]: 3.18 µM | GI50 [48]: 2.44 µM | TGI [48]: 9.68 µM | GI50 [49]: 0.692 µM | TGI [49]: 2.75 µM | GI50 [50]: 2.71 µM | TGI [50]: 26.8 µM | GI50 [51]: 0.504 µM | TGI [51]: 5.23 µM | GI50 [52]: 0.623 µM | TGI [52]: > 100 µM

O=C1c2ccn(CCCCNC(CO)(CO)CO)c2C(=O)c2c1c(O)c1ccccc1c2O
GI50 [1]: 3.41 µM | TGI [1]: 18.1 µM | GI50 [2]: 2.01 µM | TGI [2]: > 100 µM | GI50 [4]: 2.02 µM | TGI [4]: 13 µM | GI50 [5]: 0.719 µM | TGI [5]: 2.24 µM | GI50 [6]: 2.76 µM | TGI [6]: > 22.1 µM | GI50 [7]: 1.86 µM | TGI [7]: 3.59 µM | GI50 [8]: 1.83 µM | TGI [8]: 4.37 µM | GI50 [9]: 11.9 µM | TGI [9]: 47.2 µM | GI50 [10]: 0.912 µM | TGI [10]: > 23.6 µM | GI50 [53]: 0.56 µM | TGI [53]: 1.89 µM | GI50 [11]: 2.27 µM | TGI [11]: 4.2 µM | GI50 [12]: 1.21 µM | TGI [12]: 11 µM | GI50 [15]: 1.86 µM | TGI [15]: 3.96 µM | GI50 [54]: 2.56 µM | TGI [54]: 21 µM | GI50 [16]: 1.89 µM | TGI [16]: 4.69 µM | GI50 [55]: 0.436 µM | TGI [55]: 0.857 µM | GI50 [17]: 1.89 µM | TGI [17]: 19.6 µM | GI50 [18]: 16.5 µM | TGI [18]: 46.8 µM | GI50 [19]: 5.21 µM | TGI [19]: 53.1 µM | GI50 [20]: 2.35 µM | TGI [20]: > 22.2 µM | GI50 [21]: 0.457 µM | TGI [21]: 2.26 µM | GI50 [22]: 16.3 µM | TGI [22]: 42.3 µM | TGI [23]: 0.931 µM | GI50 [24]: 2.29 µM | TGI [24]: 6.05 µM | GI50 [25]: 0.992 µM | TGI [25]: 2.42 µM | GI50 [27]: 0.183 µM | TGI [27]: 0.388 µM | GI50 [28]: 23.7 µM | TGI [28]: > 100 µM | GI50 [29]: 2.83 µM | TGI [29]: 7.57 µM | GI50 [30]: 0.517 µM | TGI [30]: 1.72 µM | GI50 [31]: 31.6 µM | TGI [31]: > 100 µM | GI50 [32]: 0.592 µM | TGI [32]: 1.76 µM | GI50 [33]: 0.17 µM | TGI [33]: 0.515 µM | GI50 [34]: 4.57 µM | TGI [34]: 13.8 µM | GI50 [35]: 2.81 µM | TGI [35]: 9.35 µM | GI50 [37]: 3.33 µM | TGI [37]: 22.6 µM | GI50 [38]: 0.808 µM | TGI [38]: 2.68 µM | GI50 [39]: 4.38 µM | TGI [39]: > 100 µM | GI50 [41]: 24.8 µM | TGI [41]: 74 µM | GI50 [42]: 3.01 µM | TGI [42]: 7.78 µM | GI50 [43]: 3.82 µM | TGI [43]: 8.77 µM | GI50 [44]: 4.39 µM | TGI [44]: 8.83 µM | GI50 [56]: 22.7 µM | TGI [56]: 69.9 µM | GI50 [45]: 7.71 µM | TGI [45]: 24.6 µM | GI50 [46]: 7.81 µM | TGI [46]: > 47.8 µM | GI50 [47]: 1.95 µM | TGI [47]: 4.67 µM | GI50 [48]: 1.91 µM | TGI [48]: 4.4 µM | GI50 [49]: 6.44 µM | TGI [49]: > 43.6 µM | GI50 [50]: 2.17 µM | TGI [50]: 11.4 µM | GI50 [51]: 11.5 µM | TGI [51]: > 75 µM | GI50 [52]: 2.42 µM | TGI [52]: 5.76 µM
